In PMC12077194, “Structural basis for spermidine recognition and modulation of Acinetobacter baumannii multidrug efflux regulator AmvR” (mBio, 2025):

Experiments:
AmvR^E71A = target: T1, AmvR^E71A (Acinetobacter baumannii, UniProt A0A7U3Y8S7, E71A); test: ITC of polyamines with AmvR^E71A mutant; assay type: binding
T1 sequence (A0A7U3Y8S7 4-192 E71A): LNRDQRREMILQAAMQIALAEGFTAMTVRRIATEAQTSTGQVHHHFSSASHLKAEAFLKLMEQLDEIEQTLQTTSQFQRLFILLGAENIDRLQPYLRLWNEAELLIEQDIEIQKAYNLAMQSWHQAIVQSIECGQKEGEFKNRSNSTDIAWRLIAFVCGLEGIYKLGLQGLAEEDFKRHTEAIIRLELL
Experimental: (§1) The AmvR^WT or mutant proteins were purified with affinity chromatography followed by size-exclusion chromatography and buffer-exchange with buffer D. The polyamines were also dissolved in Buffer D. The ITC experiments were performed at 20°C using a MicroCal PEAQ-ITC (Malvern Panalytical Ltd) using 20 injections of 2 µL or 25 injections of 1.6 µL. A solution of 100 µM AmvR wild-type or mutants was loaded into the cell, whereas a 1 mM solution of polyamines was loaded into the syringe. The measured heat changes of the binding reactions were integrated and analyzed using the standard “one set of sites” model implemented in the Origin software package (OriginLab) to determine the binding stoichiometry (N-value) and the equilibrium dissociation constant (Kd).

AmvR L86A = target: T2, AmvR L86A (Acinetobacter baumannii, UniProt A0A7U3Y8S7, L86A); test: ITC of spermidine with AmvR L86A mutant; assay type: binding
T2 sequence (A0A7U3Y8S7 4-192 L86A): T1 sequence (A0A7U3Y8S7 4-192 E71A)
Experimental: as §1

AmvR W102A = target: T3, AmvR W102A (Acinetobacter baumannii, UniProt A0A7U3Y8S7, W102A); test: ITC of spermidine with AmvR W102A mutant; assay type: binding
T3 sequence (A0A7U3Y8S7 4-192 W102A): T1 sequence (A0A7U3Y8S7 4-192 E71A)
Experimental: as §1

AmvR W126E = target: T4, AmvR W126E (Acinetobacter baumannii, UniProt A0A7U3Y8S7, W126E); test: ITC of spermidine with AmvR W126E mutant; assay type: binding
T4 sequence (A0A7U3Y8S7 4-192 W126E): T1 sequence (A0A7U3Y8S7 4-192 E71A)
Experimental: as §1

AmvR L99E = target: T5, AmvR L99E (Acinetobacter baumannii, UniProt A0A7U3Y8S7, L99E); test: ITC of spermidine with AmvR L99E mutant; assay type: binding
T5 sequence (A0A7U3Y8S7 4-192 L99E): T1 sequence (A0A7U3Y8S7 4-192 E71A)
Experimental: as §1

AmvR E65A = target: T6, AmvR E65A (Acinetobacter baumannii, UniProt A0A7U3Y8S7, E65A); test: ITC of spermidine with AmvR E65A mutant; assay type: binding
T6 sequence (A0A7U3Y8S7 4-192 E65A): T1 sequence (A0A7U3Y8S7 4-192 E71A)
Experimental: as §1

AmvR E106A = target: T7, AmvR E106A (Acinetobacter baumannii, UniProt A0A7U3Y8S7, E106A); test: ITC of spermidine with AmvR E106A mutant; assay type: binding
T7 sequence (A0A7U3Y8S7 4-192 E106A): T1 sequence (A0A7U3Y8S7 4-192 E71A)
Experimental: as §1

AmvR^E164A = target: T8, AmvR^E164A (Acinetobacter baumannii, UniProt A0A7U3Y8S7, E164A); test: ITC of spermidine with AmvR^E164A mutant; assay type: binding
T8 sequence (A0A7U3Y8S7 4-192 E164A): T1 sequence (A0A7U3Y8S7 4-192 E71A)
Experimental: as §1

AmvR = target: T9, AmvR (Acinetobacter baumannii, UniProt A0A7U3Y8S7); test: Isothermal titration calorimetry of polyamines with apo AmvR wild-type; assay type: binding; conditions: ITC, 20°C, read-out: equilibrium dissociation constant (Kd)
T9 sequence (A0A7U3Y8S7 4-192): T1 sequence (A0A7U3Y8S7 4-192 E71A)
Experimental: as §1

AmvR N103A = target: T10, AmvR N103A (Acinetobacter baumannii, UniProt A0A7U3Y8S7, N103A); test: ITC of spermidine with AmvR N103A mutant; assay type: binding
T10 sequence (A0A7U3Y8S7 4-192 N103A): T1 sequence (A0A7U3Y8S7 4-192 E71A)
Experimental: as §1

AmvR^L99Q = target: T11, AmvR^L99Q (Acinetobacter baumannii, UniProt A0A7U3Y8S7, L99Q); test: ITC of spermidine with AmvR^L99Q mutant; assay type: binding
T11 sequence (A0A7U3Y8S7 4-192 L99Q): T1 sequence (A0A7U3Y8S7 4-192 E71A)
Experimental: as §1

[1] = target: AmvR (a.a. 4-192) from Acinetobacter baumannii, wild type (Acinetobacter baumannii); test: SEC; Superdex 75 Increase 10/300 GL, buffer F (200 mM NaCl, 20 mM Tris pH 8.0, 5 mM DTT), compared with gel filtration standards; AmvR^WT also with 2x and 10x spermidine

Molecule: NCCCCNCCCN [spermidine]
- Kd (AmvR^E71A): 40.5 µM
- Kd (AmvR L86A): 6.21 µM
- KD (AmvR W102A): completely eliminated spermidine binding
- Kd (AmvR W126E): 7.52 µM
- Kd (AmvR L99E): 5.71 µM
- Kd (AmvR E65A): 0.96 µM
- Kd (AmvR E106A): 7.09 µM
- KD (AmvR^E164A): eliminated spermidine binding
- Kd (AmvR): 0.73 µM
- Kd (AmvR N103A): 1.22 µM
- Kd (AmvR^L99Q): 0.75 µM

Molecule: NCCCCN [putrescine]
- Kd (AmvR): 9.52 µM

Molecule: NCCCCCN [cadaverine]
- Kd (AmvR^E71A): 69.9 µM
- Kd (AmvR): 5.88 µM

Molecule: NCCCNCCCCNCCCN [spermine]
- Kd (AmvR^E71A): 88.5 µM
- Kd (AmvR): 2.16 µM

Molecule: AmvR (a.a. 4-192) from Acinetobacter baumannii, wild type (natural protein)
- stoichiometry N [1]: 2
